pIC50: −log10 of the molar value.
Assays:
J774 cells = assay: ACAT inhibitory action (anti-foaming action) in J774 cells; format: cell-based; settings: Mus musculus, 10 μg/ml 25-OH cholesterol, 18 hours, cholesterol ester per protein, read-out: Enzyme (J774) IC50
HepG2 cells = assay: ACAT inhibitory action (anti-foaming action) in HepG2 cells; format: cell-based; settings: Homo sapiens, 10 μg/ml 25-OH cholesterol, 18 hours, cholesterol ester per protein, read-out: Enzyme (HepG2) IC50

pIC50 (J774 cells) | pIC50 (HepG2 cells) | melting point | SMILES
6.49 | – | – | CCCCCCCCCN(CC(C)(C)C)C(=O)N[C@H]1CCCC[C@@H]1OC(=O)CCNC(=O)C1OC(C)(C)OCC1(C)C (stereo partly shown) [Control 3, reference compound]
7.00 | 5.84 | 173 to 175 °C | COC(=O)c1cccc2oc(SCCN3CCN(CC(=O)Nc4c(C(C)C)cccc4C(C)C)CC3)nc12 [Example 5, 2-[4-[2-(4-methoxycarbonylbenzoxazol-2-ylthio)ethyl]-piperazin-1-yl]-N-(2,6-diisopropylphenyl)acetamide]
6.57 | 5.31 | 135 to 136 °C | COC(=O)c1cccc2nc(SCCCN3CCN(CC(=O)Nc4c(C(C)C)cccc4C(C)C)CC3)oc12 [Example 10, 2-[4-[3-(7-methoxycarbonylbenzoxazol-2-ylthio)propyl]piperazin-1-yl]-N-(2,6-diisopropylphenyl)acetamide]
